The results in this text go back to ChEMBL document CHEMBL5042538 (J Med Chem, 2022).

Molecules are shown by their SMILES.

Usually IC50 stands for the concentration needed to halve the response being measured. In general, kinact refers to the rate constant of inactivation at saturating inhibitor. The inhibition is the percentage by which the read-out fell short of the control.

Data set [1] relates to CYP3A. Put plainly: Inactivation of CYP3A in human liver microsomes using midazolam as substrate assessed as enzyme remaining activity in presence of glutathione. Format: ADME. To be noted: probe midazolam, read-out: INH. For orientation: Liver microsomes are vesicles of endoplasmic reticulum, rich in cytochrome P450 enzymes.
Data set [2] concerns the target T1, Cytochrome P450 3A7 (Homo sapiens, UniProt P24462). Briefly: Time dependent inhibition of recombinant human CYP3A7 using midazolam as substrate preincubated for 30 mins in presence of NADPH generating system followed by substrate addition incubated for 30 mins by LC-MS/MS analysi. Format: ADME.
The target in a further data set is CYP3A7 (Homo sapiens, UniProt P24462). Put plainly: Ratio of IC50 for time dependent inhibition of recombinant human CYP3A7 incubated for 30 mins by LC-MS/MS analysis to IC50 for time dependent inhibition of recombinant human CYP3A7 using midazolam as substrate preincubated for 30 mins in presence of NADPH-generating system followed by substrate addition further incubated for 30 mins by LC-MS/MS analysis. The following applies: recombinant human CYP3A7, probe midazolam, read-out: Ratio IC50.

Data set [3] deals with T2, CYP3A4 (Homo sapiens, UniProt P08684). Briefly: Time dependent inhibition of recombinant human CYP3A4 assessed as enzyme remaining activity at 2.5 uM using midazolam as substrate incubated for 30 mins relative to control. Format: ADME. The following applies: recombinant human CYP3A4, probe midazolam, read-out: TDI.
For data set [4], the target named is T2, CYP3A4. Put plainly: Inactivation of recombinant human CYP3A4 assessed as inactivation constant using midazolam as substrate preincubated for 5 mins followed by beta-NADP addition for 15 mins and midazolam addition after 10 mins in presence of NADPH-generating system by LC-MS/MS analysis. Format: ADME. The following applies: recombinant human CYP3A4, probe midazolam, time 30 min.

Data set [5] concerns the target T3, Cytochrome P450 3A4 (Homo sapiens, UniProt P08684). Briefly: Inactivation of recombinant human CYP3A4 assessed as partition ratio in presence of NADPH-generating system. Format: ADME. The following applies: recombinant enzyme.
The target in data set [6] is T3, Cytochrome P450 3A4. Put plainly: Time dependent inhibition of recombinant human CYP3A4 incubated for 30 mins in presence of NADPH generating system by LC-MS/MS analysis. Format: ADME.
A short description of data set [7]: Drug metabolism assessed as human CYP2D6-mediated M1 metabolite formation at 7.32 mins in presence of NADPH generating system by LC-MS/MS analysis. Format: ADME. The following applies: recombinant enzyme, 0.122 h.
Data set [8] is described as follows: Time dependent inhibition of human CYP3A in human liver microsomes using midazolam as substrate preincubated for 30 mins in presence of NADPH-generating system followed by substrate addition incubated for 10 mins by LC-MS/MS analysis. Format: ADME.
Data set [9] concerns CYP3A4. Put plainly: Time dependent inhibition of CYP3A4 in human liver microsomes assessed as enzyme remaining activity at 2.5 uM using midazolam as substrate incubated for 30 mins relative to control. Format: ADME. The following applies: probe midazolam, read-out: TDI.
Data set [10] concerns the target T3, Cytochrome P450 3A4. Briefly: Time dependent inhibition of recombinant human CYP3A4 using midazolam as substrate preincubated for 30 mins in presence of NADPH generating system followed by substrate addition incubated for 30 mins by LC-MS/MS analysi. Format: ADME.
The nature of data set [11]: Inactivation of CYP3A in human liver microsomes at 0.25 uM using midazolam as substrate in presence of NADPH generating system and super oxide dismutase. Format: ADME.
Data set [12] addresses T2, CYP3A4. Put plainly: Time dependent inhibition of recombinant human CYP3A4 assessed as enzyme remaining activity at 2.5 uM using midazolam as substrate preincubated for 30 mins in presence of NADPH-generating system relative to control. Format: ADME. To be noted: recombinant human CYP3A4, probe midazolam, read-out: TDI.
The target of data set [13] is T1, Cytochrome P450 3A7. Briefly: Time dependent inhibition of recombinant human CYP3A7 incubated for 30 mins in presence of NADPH generating system by LC-MS/MS analysis. Format: ADME.
A short description of data set [14]: Inactivation of CYP3A in human liver microsomes at 0.25 uM using midazolam as substrate in presence of NADPH generating system and mannitol. Format: ADME.
The target of data set [15] is T3, Cytochrome P450 3A4. Put plainly: Inactivation of recombinant human CYP3A4 assessed as inhibition constant using midazolam as substrate preincubated for 5 mins followed by beta-NADP addition for 15 mins and midazolam addition after 10 mins in presence of NADPH-generating system by LC-MS/MS analysis. Format: ADME.
Data set [16] deals with T2, CYP3A4. Briefly: Time dependent inhibition of CYP3A4 in human liver microsomes assessed as enzyme remaining activity at 2.5 uM using midazolam as substrate preincubated for 30 mins in presence of NADPH-generating system relative to control. Format: ADME. To be noted: probe midazolam, read-out: TDI.
Data set [17] relates to CYP3A. Put plainly: Ratio of IC50 for time dependent inhibition of CYP3A in human liver microsomes incubated for 30 mins by LC-MS/MS analysis to IC50 for time dependent inhibition of CYP3A in human liver microsomes using midazolam as substrate preincubated for 30 mins in presence of NADPH-generating system followed by substrate addition further incubated for 30 mins by LC-MS/MS analysis. The following applies: probe midazolam, read-out: Ratio IC50.

In data set [18] the target is T3, Cytochrome P450 3A4. Briefly: Drug metabolism assessed as human CYP3A4-mediated M1 metabolite formation at 7.32 mins in presence of NADPH generating system by LC-MS/MS analysis. Format: ADME. The following applies: recombinant enzyme, 0.122 h.
The target in data set [19] is T2, CYP3A4. Put plainly: Inactivation of recombinant human CYP3A4 at 0.1 uM for 10 mins relative to control. Format: ADME.
The target of another data set is CYP3A5 (Homo sapiens, UniProt P20815). Put plainly: Ratio of IC50 for time dependent inhibition of recombinant human CYP3A5 incubated for 30 mins by LC-MS/MS analysis to IC50 for time dependent inhibition of recombinant human CYP3A5 using midazolam as substrate preincubated for 30 mins in presence of NADPH-generating system followed by substrate addition further incubated for 30 mins by LC-MS/MS analysis. The following applies: recombinant human CYP3A5, probe midazolam, read-out: Ratio IC50.

The target in data set [20] is T4, Cytochrome P450 3A5 (Homo sapiens, UniProt P20815). Put plainly: Time dependent inhibition of recombinant human CYP3A5 incubated for 30 mins in presence of NADPH generating system by LC-MS/MS analysis. Format: ADME.
Data set [21] concerns the target T2, CYP3A4. Briefly: Ratio of IC50 for time dependent inhibition of recombinant human CYP3A4 incubated for 30 mins by LC-MS/MS analysis to IC50 for time dependent inhibition of recombinant human CYP3A4 using midazolam as substrate preincubated for 30 mins in presence of NADPH-generating system followed by substrate addition further incubated for 30 mins by LC-MS/MS analysis. To be noted: recombinant human CYP3A4, probe midazolam, read-out: Ratio IC50.

A short description of data set [22]: Time dependent inhibition of CYP3A in human liver microsomes using midazolam as substrate preincubated for 30 mins in presence of NADPH generating system followed by substrate addition incubated for 30 mins by LC-MS/MS analysi. Format: ADME.
The target of data set [23] is T3, Cytochrome P450 3A4. Put plainly: Inactivation of CYP3A4 in human liver microsomes assessed as inhibition constant using midazolam as substrate preincubated for 5 mins followed by beta-NADP addition for 15 mins and midazolam addition after 10 mins in presence of NADPH-generating system by LC-MS/MS analysis. Format: ADME.
In data set [24] the target is T3, Cytochrome P450 3A4. Put plainly: Drug metabolism assessed as human CYP3A4-mediated M2 metabolite formation at 7.80 mins in presence of NADPH generating system by LC-MS/MS analysis. Format: ADME. The following applies: recombinant enzyme, 0.13 h, time 7.8 min.
Data set [25] can be described thus: Inactivation of CYP3A in human liver microsomes at 0.25 uM using midazolam as substrate in presence of NADPH generating system and ferric cyanide. Format: ADME.
Data set [26] concerns the target T2, CYP3A4. Briefly: Inactivation of CYP3A4 in human liver microsomes assessed as inactivation constant using midazolam as substrate preincubated for 5 mins followed by beta-NADP addition for 15 mins and midazolam addition after 10 mins in presence of NADPH-generating system by LC-MS/MS analysis. Format: ADME. To be noted: probe midazolam, time 30 min.
Data set [27] in a line: Inhibition of CYP3A in human liver microsomes at 2.5 uM using de-oxyschizandrin as substrate at 10 to 20 fold excess concentration preincubated for 5 mins followed by beta-NADP addition and measured upto 12 mins. Format: ADME. To be noted: 0.2 h, time <=17 min.
The subject of data set [28] is CYP3A. Briefly: Inhibition of CYP3A in human liver microsomes at 1 uM using midazolam as substrate incubated for 10 mins relative to control. Format: ADME. The following applies: probe midazolam.
Data set [29] deals with T4, Cytochrome P450 3A5. Briefly: Time dependent inhibition of recombinant human CYP3A5 using midazolam as substrate preincubated for 30 mins in presence of NADPH generating system followed by substrate addition incubated for 30 mins by LC-MS/MS analysis. Format: ADME.
Data set [30] can be described thus: Drug metabolism assessed as human CYP2D6-mediated M2 metabolite formation at 7.80 mins in presence of NADPH generating system by LC-MS/MS analysis. Format: ADME. The following applies: recombinant enzyme, 0.13 h, time 7.8 min.
Data set [31] in a line: Inactivation of CYP3A in human liver microsomes at 0.25 uM using midazolam as substrate in presence of NADPH generating system and catalase. Format: ADME.
Data set [32] can be described thus: Inhibition of CYP3A in human liver microsomes at 2.5 uM using Nifedipine as substrate at 10 to 20 fold excess concentration preincubated for 5 mins followed by beta-NADP addition and measured upto 12 mins. Format: ADME. To be noted: 0.2 h, time <=17 min.
Data set [33] is described as follows: Time dependent inhibition of CYP3A in human liver microsomes incubated for 30 mins in presence of NADPH generating system by LC-MS/MS analysis. Format: ADME.
The test system of data set [34] is CYP3A. Put plainly: Time dependent inhibition of CYP3A in human liver microsomes assessed as enzyme remaining activity at 10 uM using N-ethyl-1,8-naphthalimide as substrate preincubated for 30 mins in presence of NADPH generating system followed by substrate addition and incubated for 10 mins by microplate reader analysis relative to control. Format: ADME. To be noted: probe N-ethyl-1,8-naphthalimide, time 40 min, read-out: TDI.

Data set [35] has as its system CYP3A. Briefly: Inhibition of CYP3A in human liver microsomes at 10 uM using midazolam as substrate incubated for 10 mins relative to control. Format: ADME. The following applies: probe midazolam.

T2 sequence (P08684 whole entry): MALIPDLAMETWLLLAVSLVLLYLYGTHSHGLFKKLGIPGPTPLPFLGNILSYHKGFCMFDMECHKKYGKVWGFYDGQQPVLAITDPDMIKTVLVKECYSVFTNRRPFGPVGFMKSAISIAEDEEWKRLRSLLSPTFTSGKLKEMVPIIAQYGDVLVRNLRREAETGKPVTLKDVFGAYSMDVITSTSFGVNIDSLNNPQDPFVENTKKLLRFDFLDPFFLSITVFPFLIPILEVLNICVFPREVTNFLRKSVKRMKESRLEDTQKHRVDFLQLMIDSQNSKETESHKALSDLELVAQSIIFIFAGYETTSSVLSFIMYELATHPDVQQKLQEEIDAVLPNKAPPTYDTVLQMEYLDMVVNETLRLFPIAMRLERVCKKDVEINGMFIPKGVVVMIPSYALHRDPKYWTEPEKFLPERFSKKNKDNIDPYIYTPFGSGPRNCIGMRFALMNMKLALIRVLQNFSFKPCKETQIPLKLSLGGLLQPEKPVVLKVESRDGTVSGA
T3 sequence (P08684 whole entry): as above
T4 sequence (P20815 whole entry): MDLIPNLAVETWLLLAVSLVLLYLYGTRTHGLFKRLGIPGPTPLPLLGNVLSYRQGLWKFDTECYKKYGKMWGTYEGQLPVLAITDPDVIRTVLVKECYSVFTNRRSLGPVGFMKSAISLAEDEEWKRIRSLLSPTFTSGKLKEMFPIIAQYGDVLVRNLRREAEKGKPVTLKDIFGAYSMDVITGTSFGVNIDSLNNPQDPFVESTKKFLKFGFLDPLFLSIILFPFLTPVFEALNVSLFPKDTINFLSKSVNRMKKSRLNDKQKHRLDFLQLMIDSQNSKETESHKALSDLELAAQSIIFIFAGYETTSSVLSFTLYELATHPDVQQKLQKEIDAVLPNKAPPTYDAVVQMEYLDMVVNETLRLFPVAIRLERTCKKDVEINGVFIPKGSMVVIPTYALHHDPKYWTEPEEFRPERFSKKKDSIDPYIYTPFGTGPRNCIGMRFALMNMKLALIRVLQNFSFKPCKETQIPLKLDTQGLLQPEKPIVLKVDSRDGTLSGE
T1 sequence (P24462 whole entry): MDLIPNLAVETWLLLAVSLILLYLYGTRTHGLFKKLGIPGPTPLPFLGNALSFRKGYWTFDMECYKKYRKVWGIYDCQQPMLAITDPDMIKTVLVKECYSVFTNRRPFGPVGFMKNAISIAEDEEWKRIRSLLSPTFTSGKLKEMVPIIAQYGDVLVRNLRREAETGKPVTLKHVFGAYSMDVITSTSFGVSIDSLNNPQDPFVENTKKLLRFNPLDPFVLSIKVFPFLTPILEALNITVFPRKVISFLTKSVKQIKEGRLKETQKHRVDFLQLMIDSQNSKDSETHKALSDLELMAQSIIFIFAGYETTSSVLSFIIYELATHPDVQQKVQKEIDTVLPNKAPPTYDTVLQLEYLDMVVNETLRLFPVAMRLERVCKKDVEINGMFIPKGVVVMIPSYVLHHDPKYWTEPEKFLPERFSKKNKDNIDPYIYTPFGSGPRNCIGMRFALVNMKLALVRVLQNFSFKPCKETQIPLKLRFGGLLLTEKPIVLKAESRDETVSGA
Sequence of CYP3A5 (P20815 whole entry): as the sequence (P20815 whole entry) above
Sequence of CYP3A7 (P24462 whole entry): as the sequence (P24462 whole entry) above

As to `C[C@]12CCC(=O)C[C@H]1CC[C@@H]1[C@@H]2CC[C@]2(C)[C@@H](c3ccc(=O)oc3)CC[C@]12O`, the activity in the data set with CYP3A [1] was 43.8%. For the same molecule, the concentration for half-maximal inhibition (IC50) at Cytochrome P450 3A7 [2] turned out to be 64800 nM; at Cytochrome P450 3A4 [6], 1560 nM; in data set [8], 30 nM; at Cytochrome P450 3A4 [10], 90 nM; on Cytochrome P450 3A7 [13], 10800 nM; at Cytochrome P450 3A5 [20], 5490 nM. Further, the figures for the half-inhibitory concentration (IC50) (in data set [22]; at Cytochrome P450 3A5 [29]; in [33]) were 450 nM, 2340 nM and 370 nM, respectively. Besides, the IC50 shift at 0.5 h was 17.5 on CYP3A7, 12.3 in the data set with CYP3A [17], 5.87 on CYP3A5 and 17.3 on CYP3A4 [21]. The activity at 0.5 h, 2.5 µM is 81.2% at CYP3A4 [3] and 72.5% in the data set on CYP3A4 [9]. The kinact on CYP3A4 [4] is 0.00268 s⁻¹; on CYP3A4 [26] it was 0.00107 s⁻¹. Besides, on Cytochrome P450 3A4 [5], the Ratio came out at 0.75. The Drug metabolism result (in data set [7]; at Cytochrome P450 3A4 [18]; at Cytochrome P450 3A4 [24]; in data set [30]) was “Metabolite_Detected” throughout. Moreover, the “inhibition (INH)” value in data set [11] is on record as “Active”; in data set [14], “Active”; in data set [25], “Active”; in data set [27], “Not Active”; in data set [31], “Active”; in data set [32], “Not Active”. Also, the activity at 30 min, 2.5 µM was 11.9% at CYP3A4 [12] and 19.7% at CYP3A4 [16]. Further, the Ki came out at 250 nM at Cytochrome P450 3A4 [15] and 660 nM at Cytochrome P450 3A4 [23]. For the same molecule, the inhibition at 10 min, 0.1 µM on CYP3A4 [19] amounted to 50%. The inhibition at 10 min, 1 µM in the data set with CYP3A [28] was 49%.
Consider `CC(=O)O[C@H]1[C@H]2O[C@]23[C@@H]2CC[C@@H]4CC(=O)CC[C@]4(C)[C@H]2CC[C@]3(C)[C@H]1c1ccc(=O)oc1`, for which the IC50 shift at 0.5 h with CYP3A [17] was 24.8. For the same molecule, the half-maximal inhibitory concentration (IC50) in [22] was found to be 540 nM; in data set [33], 13400 nM.
Take `C[C@]12CCC(=O)C[C@H]1CC[C@@H]1[C@@H]2CC[C@]2(C)[C@@H](c3ccc(=O)oc3)C[C@H]3O[C@]132`: the IC50 shift at 0.5 h in the data set with CYP3A [17] is 11.4. In addition, the results for the IC50 in data set [22] and in data set [33] were 520 nM and 5930 nM, respectively.
Turning to `C[C@]12CC[C@H](O)C[C@H]1CC[C@@H]1[C@@H]2CC[C@]2(C)[C@@H](c3ccc(=O)oc3)CC[C@]12O` [BUFALIN], the activity at 10 min, 10 µM with CYP3A [34] came to 6.81%. For the same molecule, the half-maximal inhibitory concentration (IC50) amounted to 740 nM in data set [22] and 11400 nM in data set [33]. In the data set with CYP3A [35], this molecule returned an inhibition at 10 min, 10 µM of 53%.
